Source: patent EP4570805A1, “TRICYCLIC COMPOUNDS AND MEDICAL USE THEREOF” (Chia Tai Tianqing Pharmaceutical Group Co., Ltd., priority 2022, dated 2024)

Tests used:
Capan-1 cells = assay: Inhibitory activity for Capan-1 cell proliferation (CCK-8); type: cell-based; conditions: 5 days incubation
Description: Capan-1 cells in a well-growing state were collected into a centrifuge tube, adjusted to a cell density of 1.5 × 10^4 cells/mL, and inoculated onto a 96-well plate (100 µL/well). […] Meanwhile, a control was set. After 5 days of incubation in the cell incubator, the assay reagent CCK-8 (manufacturer: Dojindo Laboratories, Beijing; 10 µL/well) was added. After 4 h of incubation in the cell incubator, the absorbance was measured at 450 nm on a PerkinElmer Envision microplate reader. A four-parameter analysis was performed, a dose-response curve was fitted, and IC50 was calculated.

AsPc-1 cells = assay: Inhibitory activity for AsPc-1 cell proliferation (CCK-8); type: cell-based, human
Description: AsPc-1 cells in a well-growing state were collected into a centrifuge tube, adjusted to a cell density of 3 × 10^4 cells/mL, and inoculated onto a 96-well plate (100 µL/well). The compounds were added using a nanoliter pipettor such that the final concentrations of the compounds were 5000 nM-0.31 nM (the addition was performed in duplicate). Meanwhile, a control was set. After 72 h of incubation in the cell incubator, the assay reagent CCK-8 (manufacturer: Dojindo Laboratories; 10 µL/well) was added. After 3 h of incubation in the cell incubator, the absorbance was measured at 450 nm on a PerkinElmer Envision microplate reader. A four-parameter analysis was performed, a dose-response curve was fitted, and IC50 was calculated.

[1] = Homo sapiens, ASPC1, 72 h incubation

Compound	IC50 (AsPc-1 cells; [1])	IC50 (Capan-1 cells)	IC50 (AsPc-1 cells; 72 h incubation)	IC50 (Capan-1 cells; Homo sapiens, CAPAN-1, 120 h)
C#Cc1c(F)ccc2cc(O)cc(-c3nc4c5c(nc(OC[C@@]67CCCN6C/C(=C\F)C7)nc5c3F)N(C(C)c3cccnc3N)[C@@H](C)CO4)c12 (single isomer, unassigned) [Example 177]	–	< 100 nM	≤ 100 nM	–
C#Cc1c(F)ccc2cc(O)cc(-c3nc4c5c(nc(OCC6(CN7CCOCC7)CC6)nc5c3F)N(C(C)c3cccnc3N)[C@@H](C)CO4)c12 (single isomer, unassigned) [Example 69]	≤ 100 nM	–	–	< 100 nM
C#Cc1c(F)ccc2cccc(-c3nc4c5c(nc(OCC67CCCN6CC(F)C7)nc5c3F)N(C(C)c3cccnc3N)C(C)CO4)c12 (single isomer, unassigned) [Example 47]	≤ 100 nM	–	–	< 100 nM
C#Cc1c(F)ccc2cc(O)cc(-c3nc4c5c(nc(N6CC(C)(N(C)C)C6)nc5c3F)N(C(C)c3cccnc3N)[C@@H](C)CO4)c12 (single isomer, unassigned) [Example 156]	≤ 100 nM	–	–	< 100 nM
C#Cc1c(F)ccc2cc(O)cc(-c3nc4c5c(nc(OC[C@@H]6CC(F)(F)CN6C)nc5c3F)N(C(C)c3cccnc3N)[C@@H](C)CO4)c12 (single isomer, unassigned) [Example 148]	≤ 100 nM	–	–	< 100 nM
C#Cc1c(F)ccc2cc(O)cc(-c3nc4c5c(nc(OCC67CCCN6CC(F)C7)nc5c3F)N(CC)C(C)CO4)c12 (single isomer, unassigned) [Example 32]	≤ 100 nM	–	–	< 100 nM
[2H]C([2H])(Oc1nc2c3c(nc(-c4cc(O)cc5ccc(F)c(C#C)c45)c(F)c3n1)OC[C@H](C)N2C(C)c1cccnc1N)[C@@]12CCCN1C[C@H](F)C2 (single isomer, unassigned) [Example 71]	≤ 100 nM	–	–	< 100 nM
C#Cc1c(F)ccc2cc(N)cc(-c3nc4c5c(nc(OCC67CCCN6CC(F)C7)nc5c3F)N(C(C)c3cccnc3N)C(C)CO4)c12 (single isomer, unassigned) [Example 54]	–	< 100 nM	≤ 100 nM	–
[2H]C([2H])(Oc1nc2c3c(nc(-c4cccc5ccc(F)c(C#C)c45)c(F)c3n1)OC[C@H](C)N2C(C)c1cccnc1N)[C@@]12CCCN1C[C@H](F)C2 (single isomer, unassigned) [Example 114]	–	< 100 nM	≤ 100 nM	–
C#Cc1c(F)ccc2cc(O)cc(-c3nc4c5c(nc(OCC6(CN(C)C)CC6)nc5c3F)N(C(C)c3cccnc3N)[C@@H](C)CO4)c12 (single isomer, unassigned) [Example 150]	≤ 100 nM	–	–	< 100 nM
[2H]C([2H])(Oc1nc2c3c(nc(-c4cccc5ccc(F)c(C#C)c45)c(F)c3n1)OC[C@H](C)N2C(C)c1cccnc1N)[C@@]12CCCN1C[C@H](F)C2 (single isomer, unassigned) [Example 113]	≤ 100 nM	–	–	< 100 nM
C#Cc1c(F)ccc2cc(O)cc(-c3nc4c5c(nc(OC[C@@]67CCCN6C[C@H](F)C7)nc5c3F)N(CC)CCO4)c12 [Example 3]	100 to 500 nM	–	–	100 to 500 nM
C#Cc1c(F)ccc2cc(O)cc(-c3nc4c5c(nc(OCC67CCCN6CC(F)C7)nc5c3F)N(C(C)c3cccnc3N)C(C)CO4)c12 (single isomer, unassigned) [Example 40]	–	< 100 nM	≤ 100 nM	–
C#Cc1c(F)ccc2cc(O)cc(-c3nc4c5c(nc(OC[C@@]67CCCN6C[C@H](F)C7)nc5c3F)N(C(C)(C)C)CCO4)c12 [Example 31]	100 to 500 nM	–	–	100 to 500 nM
C#Cc1c(F)ccc2cc(O)cc(-c3nc4c5c(nc(OC[C@@]67CCCN6C/C(=C\F)C7)nc5c3F)N(C(C)c3cccnc3N)[C@@H](C)CO4)c12 (single isomer, unassigned) [Example 176]	≤ 100 nM	–	–	< 100 nM
C#Cc1c(F)ccc2cc(O)cc(-c3nc4c5c(nc(OCC67CCCN6CC(F)C7)nc5c3F)N(C(C)c3cccnc3N)C(C)CO4)c12 (single isomer, unassigned) [Example 39]	≤ 100 nM	–	–	< 100 nM

The next lines start with results.

IC50 (AsPc-1 cells; [1])	Compound	IC50 (Capan-1 cells)	IC50 (AsPc-1 cells; 72 h incubation)	IC50 (Capan-1 cells; Homo sapiens, CAPAN-1, 120 h)
≤ 100 nM	C#Cc1c(F)ccc2cc(O)cc(-c3nc4c5c(nc(OCCN6CCCC6)nc5c3F)N(C(C)c3cccnc3N)[C@@H](C)CO4)c12 (single isomer, unassigned) [Example 138]	–	–	< 100 nM
≤ 100 nM	C#Cc1c(F)ccc2cc(O)cc(-c3nc4c5c(nc(OC[C@@]67CCCN6CC(=C)C7)nc5c3F)N(C(C)c3cccnc3N)[C@@H](C)CO4)c12 (single isomer, unassigned) [Example 178]	–	–	–
≤ 100 nM	C#Cc1c(F)ccc2cc(O)cc(-c3nc4c5c(nc(OC[C@@H]6C[C@@H](F)CN6C)nc5c3F)N(C(C)c3cccnc3N)[C@@H](C)CO4)c12 (single isomer, unassigned) [Example 146]	–	–	< 100 nM
≤ 100 nM	C#Cc1c(F)ccc2cc(O)cc(-c3nc4c5c(nc(OC[C@@H]6C[C@H](F)CN6C)nc5c3F)N(C(C)c3cccnc3N)[C@@H](C)CO4)c12 (single isomer, unassigned) [Example 105]	–	–	< 100 nM
≤ 100 nM	C#Cc1c(F)ccc2cc(O)cc(-c3nc4c5c(nc(OCC67CCCN6CC(F)C7)nc5c3F)N(C(C)c3cccnc3N)CCO4)c12 (single isomer, unassigned) [Example 36]	–	–	< 100 nM
≤ 100 nM	CCc1c(F)ccc2cccc(-c3nc4c5c(nc(OC[C@@]67CCCN6C[C@H](F)C7)nc5c3F)N(C(C)c3cccnc3N)[C@@H](C)CO4)c12 (single isomer, unassigned) [Example 122]	–	–	< 100 nM
≤ 100 nM	CC(c1cccnc1N)N1c2nc(OC[C@@]34CCCN3C[C@H](F)C4)nc3c(F)c(-c4cccc5cccc(Cl)c45)nc(c23)OC[C@@H]1C (some centres unmarked) [Example 115]	–	–	< 100 nM
≤ 100 nM	C#Cc1cccc2cccc(-c3nc4c5c(nc(OC[C@@]67CCCN6C[C@H](F)C7)nc5c3F)N(C(C)c3cccnc3N)[C@@H](C)CO4)c12 (single isomer, unassigned) [Example 130]	–	–	< 100 nM
≤ 100 nM	CC(c1cccnc1N)N1c2nc(OC[C@@]34CCCN3C[C@H](F)C4)nc3c(F)c(-c4cc(O)cc5ccccc45)nc(c23)OC[C@@H]1C (single isomer, unassigned) [Example 118]	–	–	< 100 nM
≤ 100 nM	[2H]C([2H])(Oc1nc2c3c(nc(-c4cc(O)cc5ccc(F)c(C#C)c45)c(F)c3n1)OCCN2C(C)c1cccnc1N)[C@@]12CCCN1C[C@H](F)C2 (some centres unmarked) [Example 51]	–	–	< 100 nM
≤ 100 nM	CC(c1cccnc1N)N1c2nc(OC[C@@]34CCCN3C[C@H](F)C4)nc3c(F)c(-c4cccc5ccc(F)c(Cl)c45)nc(c23)OC[C@@H]1C (single isomer, unassigned) [Example 124]	–	–	< 100 nM
≤ 100 nM	C#Cc1c(F)ccc2cc(O)cc(-c3nc4c5c(nc(OC[C@@H]6CCCN6C)nc5c3F)N(C(C)c3cccnc3N)[C@@H](C)CO4)c12 (single isomer, unassigned) [Example 67]	–	–	< 100 nM
≤ 100 nM	C#Cc1c(F)ccc2cc(O)cc(-c3nc4c5c(nc(OC[C@@]67CCCN6C[C@H](F)C7)nc5c3F)N(C(C)C)C(C)CO4)c12 (some centres unmarked) [Example 49]	–	–	–
≤ 100 nM	C#Cc1c(F)ccc2cc(O)cc(-c3nc4c5c(nc(OC[C@@]67CCCN6C[C@H](F)C7)nc5c3F)N(C(C)c3cccnc3N)[C@@H](C)CO4)c12 (some centres unmarked) [Example 38]	–	–	< 100 nM
≤ 100 nM	C#Cc1c(F)ccc2cc(O)cc(-c3nc4c5c(nc(OC[C@@]67CCCN6C[C@H](F)C7)nc5c3F)N(C(C)c3cccnc3N)CCO4)c12 (some centres unmarked) [Example 34]	–	–	< 100 nM
≤ 100 nM	C#Cc1c(F)ccc2cc(O)cc(-c3nc4c5c(nc(OCCN6CC(F)C6)nc5c3F)N(C(C)c3cccnc3N)[C@@H](C)CO4)c12 (single isomer, unassigned) [Example 172]	–	–	< 100 nM
≤ 100 nM	C#Cc1c(F)ccc2cc(N)cc(-c3nc4c5c(nc(OCC67CCCN6CCC7)nc5c3F)N(C(C)c3cccnc3N)[C@@H](C)CO4)c12 (single isomer, unassigned) [Example 164]	–	–	–
≤ 100 nM	C#Cc1c(F)ccc2cc(N)cc(-c3nc4c5c(nc(OCC67CCCN6CC(F)C7)nc5c3F)N(C(C)c3cccnc3N)C(C)CO4)c12 (single isomer, unassigned) [Example 53]	–	–	< 100 nM
